Test results published in US11166460B2, “α-amino acrylate microbicide, and preparation method therefor and uses thereof” (priority 2017, dated 2021).
≈ marks a conversion by molar mass, not a printed value. Where two headings read alike, the source gives them in different places.

What was measured:
[1] = system: tobacco mosaic virus (TMV); test: Anti-TMV curative activity (treatment mode), live friction inoculation on tobacco seedlings; format: in vivo; conditions: Tobacco mosaic virus, read-out: Anti-TMV activity, Curative effect (inhibition), 100 μg/mL, tobacco seedlings, checked on seventh day
[2] = system: tobacco mosaic virus (TMV); test: Anti-TMV inactivation activity (inactivation mode), compound mixed with TMV before inoculation of tobacco leaves; format: in vivo; conditions: Tobacco mosaic virus, read-out: Anti-TMV activity, Inactivation effect (inhibition)
[3] = system: tobacco mosaic virus (TMV); test: Anti-TMV protective activity (protection mode), live friction inoculation on tobacco seedlings; format: in vivo; conditions: Tobacco mosaic virus, read-out: Anti-TMV activity, Protection effect (inhibition)
[4] = system: tobacco mosaic virus (TMV); test: Anti-TMV inducing activity (induction mode), tobacco seedlings; format: in vivo; conditions: Tobacco mosaic virus, read-out: Anti-TMV activity, Induction effect (inhibition), 100 μg/mL, tobacco seedlings
Alternaria solani = test: Fungicidal activity, fungi growth rate method, AS; format: cell-based; conditions: Alternaria solani, 50 μg/mL
Botrytis cinerea = test: Fungicidal activity, fungi growth rate method, BC; format: cell-based; conditions: Botrytis cinerea, 50 μg/mL
Cercospora arachidicola = test: Fungicidal activity, fungi growth rate method, CA; format: cell-based; conditions: Mycosphaerella arachidis; 50 μg/mL; read-out: Fungicidal activity, inhibition, CA
wheat Gibberella zeae = test: microbe, parasite or virus in culture; format: cell-based; conditions: Fusarium graminearum, read-out: Fungicidal activity, inhibition, GZ
[5] = system: Phytophthora infestans (Mont) de Bary; test: microbe, parasite or virus in culture; format: cell-based; conditions: Phytophthora infestans
Physalospora piricola = test: Fungicidal activity, fungi growth rate method, PP; format: cell-based; conditions: 50 μg/mL; read-out: Fungicidal activity, inhibition, PP
Pellicularia sasakii = test: Fungicidal activity, fungi growth rate method, PS; format: cell-based; conditions: 50 μg/mL
Rhizoctonia cerealis = test: Fungicidal activity, fungi growth rate method, RC; format: cell-based; conditions: Ceratobasidium cereale, 50 μg/mL
Sclerotinia sclerotiorum = test: microbe, parasite or virus in culture; format: cell-based; conditions: Sclerotinia sclerotiorum; for inhibition at 50 µg/mL: 50 μg/mL; for EC90: read-out: EC90 against S. sclerotiorum in vitro
[6] = read-out: Fungicidal activity, inhibition, AS
[7] = read-out: Fungicidal activity, inhibition, BC
[8] = read-out: Fungicidal activity, inhibition, PI
[9] = read-out: Fungicidal activity, inhibition, PS
[10] = read-out: Fungicidal activity, inhibition, RC
[11] = read-out: Fungicidal activity, inhibition, SS
[12] = read-out: Fungicidal activity (inhibition) against BC: Botrytis cinerea
[13] = read-out: Fungicidal activity (inhibition) against PI: Phytophthora infestans (Mont) de Bary
[14] = read-out: Fungicidal activity (inhibition) against PS: Pellicularia sasakii
[15] = read-out: Fungicidal activity (inhibition) against SS: Sclerotinia sclerotiorum

SMILES | inhibition at 100 µg/mL [1] [%] | inhibition at 100 µg/mL [2] [%] | inhibition at 100 µg/mL [3] [%] | inhibition at 100 µg/mL [4] [%] | inhibition at 50 µg/mL (Alternaria solani; [6]) [%] | inhibition at 50 µg/mL (Botrytis cinerea; [7]) [%] | inhibition at 50 µg/mL (Cercospora arachidicola) [%] | inhibition at 50 µg/mL (wheat Gibberella zeae) [%] | inhibition at 50 µg/mL [5, 8] [%] | inhibition at 50 µg/mL (Physalospora piricola) [%] | inhibition at 50 µg/mL (Pellicularia sasakii; [9]) [%] | inhibition at 50 µg/mL (Rhizoctonia cerealis; [10]) [%] | inhibition at 50 µg/mL (Sclerotinia sclerotiorum; [11]) [%] | melting point [°C] | inhibition at 50 µg/mL (Sclerotinia sclerotiorum; [15]) [%] | further results
COC(=O)[C@H](C)NC(=O)/C(=C/c1ccccc1)NC(=O)c1ccccc1 [Compound 34, (S,Z)-N-[1-[[1-(2-methyl propanoate)amino]carbonyl]-2-phenylethenyl]benzamide] | 0 | 0 | 0 | 50 | 21 | 24 | 16 | 16 | 5 | 0 | 0 | 3 | 56 | 147 to 148 |  | 
CC(C)(C)OC(=O)N1CCC(c2nc(C(=O)NCC(=O)O)cs2)CC1 [Compound 65, N-[[4-[2-[4-(1-Boc-piperidine)]thiazol]]formyl]ethanoic acid] | 0 | 40 | 39 | 38 | 9 | 10 | 10 | 16 | 18 | 3 | 9 | 10 | 67 | 183 to 185 |  | 
Cc1nnsc1/C=C(\NC(=O)c1ccccc1)C(=O)N1CCC(O)(c2ccc(Br)cc2)CC1 [Compound 27, (Z)-N-[1-[[4-(4-bromophenyl)-4-hydroxy-1-piperidinyl]carbonyl]-2-[5-(4-methyl-1,2,3-thiadiazol)]ethenyl]benzamide] | 3 | 34 | 37 | 0 | 21 | 26 | 12 | 57 | 24 | 12 | 20 | 23 | 47 | 212 to 214 |  | inhibition at 50 µg/mL (Botrytis cinerea; [12]): ~20%; inhibition at 50 µg/mL [5, 13]: ~20%; inhibition at 50 µg/mL (Pellicularia sasakii; [14]): ~20%
O=C(N/C(=C\c1ccc(Cl)cc1)C(=O)N1CCC(O)(c2ccc(Br)cc2)CC1)c1ccccc1 [Compound 18, (Z)-N-[1-[[4-(4-bromophenyl)-4-hydroxy-1-piperidinyl]carbonyl]-2-(4-chlorophenyl)ethenyl]benzamide] | 0 | 27 | 39 | 34 | 43 | 34 | 30 | 49 | 31 | 27 | 29 | 29 | 93 | 210 to 212 |  | inhibition at 50 µg/mL (Alternaria solani; read-out: Fungicidal activity (inhibition) against AS: Alternaria solani): 43%; EC90 (Sclerotinia sclerotiorum): 381 µg/mL (≈ 706 µM)
O=C(NC(Cc1ccccc1)C(=O)N1CCC(O)(c2ccc(Br)cc2)CC1)C1CC1 (stereo not shown) [Compound 49, N-[1-[[4-(4-bromophenyl)-4-hydroxy-1-piperidinyl]carbonyl]-2-phenylethyl]cyclopropanecarboxamide] | 29 | 31 | 41 | 21 | 28 | 15 | 12 | 43 | 11 | 6 | 14 | 18 | 50 | 101 to 103 |  | 
Cc1snnc1/C=C(\NC(=O)c1ccccc1)C(=O)N1CCC(O)(c2ccc(Br)cc2)CC1 [Compound 28, (Z)-N-[1-[[4-(4-bromophenyl)-4-hydroxy-1-piperidinyl]carbonyl]-2-[4-(5-methyl-1,2,3-thiadiazol)]ethenyl]benzamide] | 43 | 3 | 36 | 4 | 32 | 24 | 27 | 77 | 19 | 29 | 27 | 62 | 75 | 231 to 233 | 60 to 80 | inhibition at 50 µg/mL (Botrytis cinerea; [12]): ~20%; inhibition at 50 µg/mL [5, 13]: ~20%; inhibition at 50 µg/mL (Pellicularia sasakii; [14]): ~20%; inhibition at 50 µg/mL (Rhizoctonia cerealis; read-out: Fungicidal activity (inhibition) against RC: Rhizoctonia cerealis): 62%
O=C(NCc1ccccc1Br)/C(=C/c1ccccc1)NC(=O)c1ccccc1 [Compound 52, N-[(1Z)-2-phenyl-1-[[(2-bromophenylmethyl)amino]carbonyl]ethenyl]benzamide] | 12 | 31 | 20 | 47 | 11 | 18 | 11 | 29 | 16 | 6 | 14 | 18 | 38 | 178 to 180 |  | 
CC(C)(C)OC(=O)N1CCC(c2nc(/C=C3\N=C(c4ccccc4)OC3=O)cs2)CC1 [Compound 73] | 0 | 59 | 11 | 8 | 36 | 10 | 16 | 23 | 24 | 19 | 20 | 24 | 89 | 189 to 191 | 80 to 95 | 
O=C(N/C(=C\c1ccccc1)C(=O)N1CCC(O)(c2ccc(Br)cc2)CC1)C1CCCCC1 [Compound 2, (Z)-N-[1-[[4-(4-bromophenyl)-4-hydroxy-1-piperidinyl]carbonyl]-2-phenylethenyl]cyclohexanecarboxamide] | 50 | 81 | 43 | 77 | 15 | 15 | 12 | 22 | 23 | 7 | 19 | 16 | 100 | 124 to 126 | 100 | EC90 (Sclerotinia sclerotiorum): 565 µg/mL (≈ 1110 µM)
COC(=O)CCCNC(=O)/C(=C/c1ccccc1)NC(=O)c1ccccc1 [Compound 36, (Z)-N-[1-[[1-(4-methylbutanoate)amino]carbonyl]-2-phenylethenyl]benzamide] | 36 | 0 | 13 | 41 | 21 | 10 | 10 | 0 | 2 | 0 | 0 | 16 | 50 | 110 to 111 |  | 
O=C(NCc1ccc(Cl)cc1)/C(=C/c1ccccc1)NC(=O)c1ccccc1 [Compound 56, N-[(1Z)-2-phenyl-1-[[(4-chlorophenylmethyl)amino]carbonyl]ethenyl]benzamide] | 30 | 58 | 0 | 4 | 24 | 22 | 14 | 19 | 5 | 4 | 12 | 17 | 100 | 202 to 204 | 100 | EC90 (Sclerotinia sclerotiorum): 1260 µg/mL (≈ 3210 µM)
